Data as given in patent US20040204746A1, “Enhanced bioavailability of nutrients, pharmaceutical agents, and other bioactive substances through laser resonant homogenization or modification of molecular shape or crystalline form” (priority 1999, published 2004).

Columns and labels:
[1] = tested on: murine macrophages; assay: Nitrite (nitric oxide) production by LPS-stimulated murine macrophages; type: cell-based; details: 24 hours; for Nitrites: determined from optical density; for Nitrites / Mean O.D. ± S.D.: 120 mcg/ml arginine, LPS 1 ng/ml; for Mean O.D. ± S.D.: optical density at 540 nm; for nitric oxide byproducts compared with control untreated Arg #4: 120 mcg/ml
Description: Paracelsian in Ithaca, N.Y., an outside independent lab, performed the following bioassays. Each arginine sample was added to 12 wells of murine macrophages to achieve a concentration of 120 mcg/ml. This is the estimated serum concentration for a 70 Kg person after ingesting a 6-gram serving of arginine, a level observed in numerous clinical studies to be associated with a wide range of physiologic benefits. LPS at 1 ng/ml was added to each well and the cells were incubated for 24 hours. The nitrite concentration in each well's supernatant was determined 24 hours after initiation of treatment as a relative measure of nitric oxide production.
The results are listed in order of relative nitrite production, from greatest to least. The first column is the Arg #, the second the mean plus or minus the standard deviation of the optical density measurement at 540 nm, a measure of nitrite concentration, and the third column the relative production of nitrites expressed in micrograms per ml as determined from optical density.

[2] = 1600 mg per day, cited from earlier work
[3] = tested on: subject with osteoarthritis; assay: Pilot test: blood SAMe level and knee pain in a subject with osteoarthritis; type: in vivo, human
Source text: As a pilot test, a subject with osteoarthritis had blood SAMe levels measured while taking SAMe and then while taking a betaine formulation. […] On this level of SAMe ingestion for three months, their blood SAMe level was 4.9 (the normal range for this lab is 4.2-8.2). At this time, SAMe was discontinued and they started a methylation formula with one gram of laser treated betaine plus laser treated metabolic cofactors. The betaine and metabolic co-factors were in the same ratios as in the double blind clinical study formula to be described below.

[4] = tested on: liver SAMe; details: animal studies; cited from earlier work
[5] = tested on: subjects that had just survived a first myocardial infarction; details: betaine 9 grams daily plus vitamin B12, liver extract, creatine precursor; placebo 25%; cited from earlier work
[6] = tested on: murine macrophages; assay: TNF-alpha production by Echinacea-stimulated murine macrophages (ELISA); type: cell-based; details: 24 hours, samples at 20 mg/ml with Echinacea
Description: An independent outside lab, Paracelsian in Ithaca, N.Y., performed the following bioassays. A standardized Echinacea sample alone or with 20 mg/ml of Samples 1, 2, or 3 were incubated in the tissue culture media of triplicate wells of murine macrophages for 24 hours after Echinacea stimulation and then assayed for tumor necrosis factor-alpha (TNF-alpha) production in triplicate ELISA wells. Positive controls with lipopolysaccharide (LPS) at 1 ng/ml and negative controls were also assayed in the same manner.
Those skilled in the art will appreciate that the use of murine macrophages simulates the body's immune response. Adding the herb Echinacea provides a similar response to that of an immune system that is being irritated. A TNF-alpha reading is a good marker for the extent of inflammation. Thus a substance that causes a significant increase in TNF-alpha in the macrophages can be expected to create substantial inflammation in a human body—especially a body suffering from an autoimmune disease such as inflammatory bowel disease, as well as other physiological problems such as systemic lupus erythematosus, rheumatoid arthritis and food allergies.

[7] = tested on: person with relapsing lupus; assay: Case report: relapsing lupus treated with the methylation formula; type: in vivo, human; details: before the formula
Source text: The exemplary patient had suffered with relapsing lupus for several years. At the time of entry into the methylation formula studies of EXAMPLE 6, they had experienced a relapse of severe disease for several months.
Their disease was characterized by exquisitely tender blistering and ulcerating lesions on their hands and feet that made it difficult to walk or open a cabinet door without severe pain. Their skin was pallid, they were extremely fatigued with a chronic low energy state, and had suffered extensive hair loss. Their sedimentation rate, a marker for systemic inflammation, was highly elevated at 99, whereas a normal level would be 0-30. […] They declined the use of corticosteroids due to severe treatment side effects during a prior relapse.
The subject was randomized to the placebo control group and for 3 months had no improvement in condition. In the second phase of the study, they were placed on a high dose of the methylation formula of 6 grams of laser treated betaine plus cofactors daily. […]
The subject continued on a lower dose of the laser treated methylation formula for 5 more months, reduced to 1-2 grams of the laser treated betaine plus cofactors. […] At the end of fifth month of lower dose treatment, their sedimentation rate had dropped to the very low normal value of 1, the lowest level ever recorded for them.

Compound	Nitrites [1] [micrograms per ml]	Mean O.D. ± S.D. [1]	nitric oxide byproducts compared with control untreated Arg #4 [1]	further results
N=C(N)NCCC[C@H](N)C(=O)O [Arg #4, L-arginine]	11.4	.224 ± .006	–	–
N=C(N)NCCC[C@H](N)C(=O)O [Arg #1, L-arginine]	10.6	.215 ± .007	statistically significantly less nitric oxide byproducts	–
C[S+](CC[C@H](N)C(=O)O)C[C@H]1O[C@@H](n2cnc3c(N)ncnc32)[C@H](O)[C@@H]1O (stereo partly shown) [SAMe, S-adenosyl-methionine]	–	–	–	side effects [2]: essentially free of side effects; onset of anti-depressant effects ([2]; tricyclics 4-6 weeks): within one week; blood SAMe level ([3]; 800 mg of SAMe daily for three months, normal range 4.2-8.2): 4.9; knee pain ([3]; osteoarthritis): moderate degree of relief
N=C(N)NCCC[C@H](N)C(=O)O [Arg #3, L-arginine]	12.0	.232 ± .010	statistically significantly more nitric oxide byproducts	–
N=C(N)NCCC[C@H](N)C(=O)O [Arg #2, L-arginine]	10.8	.219 ± .008	statistically significantly less nitric oxide byproducts	–
C[N+](C)(C)CC(=O)O [betaine, N,N,N-trimethylglycine]	–	–	–	rise of liver SAMe levels [4]: up to fourfold; mortality after one year [5]: no mortality
lipopolysaccharide [LPS 1 ng/ml Control]	–	–	–	TNF-alpha ± S.D. [6]: 2863 ± 185.7
CCN(CCO)CCCC(C)Nc1ccnc2cc(Cl)ccc12 (stereo not shown) [Plaquenil]	–	–	–	relief of lupus symptoms [7]: did little to relieve their symptoms
